Test results taken from US20210038587A1, “METHODS AND COMPOSITIONS FOR TREATING NON-ERK MAPK PATHWAY INHIBITOR-RESISTANT CANCERS” (BIOMED VALLEY DISCOVERIES, INC., priority 2013, published 2021).
“And” between values parts separate entries of the source, which are not always exact repeats. Equal entries are not always repeated.

Columns and labels:
CDK6/cycinD3 = CDK6/cycinD3 (Homo sapiens, UniProt Q00534); experiment: Kinase counter-screen, Ki; type: biochemical; details: apparent Ki
Text: (§6) The ATP concentrations were approximately equal to the Km in all assays.

[1] = system: patient-derived xenograft (AT052C); experiment: Patient-derived xenograft from vemurafenib-refractory BRAFV600E melanoma; type: in vivo, mice; details: 100 mg/kg BID, 28 days
Text: Tumor fragments were harvested from host animals and implanted into immune-deficient mice.

RKO Parental = experiment: Single agent proliferation assay (CellTiter-Glo, 96 h); type: cell-based
Procedure: (§1) For assessment of drug sensitivity in cell-line models of acquired resistance, drug sensitivity of dose-escalated A375 cells and isogenic RKO cells was assessed in 96-hour proliferation assays. […] For the A375 assays Alamar blue (ThermoFisher) 10% (v/v) was added and incubated for 4 h, and fluorescent product was then detected using a BMG FLUOstar.
(§2) Compounds were prepared from DMSO stocks to give the desired final concentrations. The final DMSO concentration was constant at 0.1%. […] CellTiter-Glo® reagent (Promega, Madison, Wis.) was added according to manufacturer's instructions and luminescence detected using the BMG FLUOstar plate reader (BMG Labtech, Ortenberg, Germany).

[2] = system: RKO MEK1 (Q56P/+) Clone 1; experiment: as above; type: cell-based; details: RKO MEK1 Q56P/+ Cl.1
Procedure: as §1
(§3) RKO MEK1 Q56P Isogenic cells were produced by Horizon Discovery (Cambridge, UK; #HD 106-019) using a recombinant AAV-mediated gene targeting strategy. Briefly, rAAV virus was generated following transfection of the appropriate targeting vector and helper vectors in HEK293T cells, purified using an AAV purification kit (Virapur, San Diego, USA) and titrated using qPCR. Parental homozygous RKO cells (homozygous wild type for MEK1) were then infected with rAAV virus and clones that had integrated the selection cassette were identified by G418 selection and expanded. Correctly targeted clones that were heterozygous for knock-in of the MEK1 Q56P point mutation into a single allele were identified by PCR and sequencing.
as §2

[3] = system: RKO MEK1 (Q56P/+) Clone 2; experiment: as above; type: cell-based; details: RKO MEK1 Q56P/+ Cl.2
Procedure: as §1, §3, §2

advanced solid tumors = experiment: Phase I study: antitumor response (RECIST v1.1, 18F-FDG-PET); type: in vivo, human
Procedure: For measurement of antitumor response, tumor measurements based on physical examination occurred at baseline and on the first day of each treatment cycle. CT and other assessments were made every 2 to 3 cycles. Findings were assessed in accordance with RECIST v1.1: CR was defined as disappearance of all target lesions; PR was defined as a ≥30% decrease in the sum of the longest diameters of target lesions, taking baseline measurements as reference; stable disease was defined as being of neither sufficient shrinkage to qualify for PR nor sufficient increase to qualify for progressive disease, taking as reference the baseline measurement.

CDK2/cyclinA = CDK2/cyclinA (Homo sapiens, UniProt P24941); experiment: Kinase counter-screen, Ki; type: biochemical
Text: as §6

HCT116 = experiment: Reverse Phase Protein Analysis (RPPA); type: cell-based, human; details: % change from DMSO (matched cell line)
Procedure: (§4) Control wells were treated with DMSO at 0.1% (v/v) for 6 hours prior to cell lysate generation. Samples were then analyzed using reverse-phase protein microarray technology (Theranostics Health).
(§5) Cell lines with common alterations in BRAF and RAS were assayed: BRAF^V600E mutant lines A375, Colo205, and HT29; KRAS^G12C-mutant cell line MIAPACa-2; KRAS^G13D-mutant cell line HCT116; and AN3Ca with atypical HRAS^F82L mutation. Changes in protein levels are shown as a percentage change from dimethyl sulfoxide (DMSO)-treated parental control (FIG. 32A and Table 23).

A375 = experiment: Reverse Phase Protein Analysis (RPPA); type: cell-based, human; details: % change from DMSO (matched cell line)
Procedure: as §4, §5

Chain of CDK6/cycinD3 (Q00534 whole entry, species assumed): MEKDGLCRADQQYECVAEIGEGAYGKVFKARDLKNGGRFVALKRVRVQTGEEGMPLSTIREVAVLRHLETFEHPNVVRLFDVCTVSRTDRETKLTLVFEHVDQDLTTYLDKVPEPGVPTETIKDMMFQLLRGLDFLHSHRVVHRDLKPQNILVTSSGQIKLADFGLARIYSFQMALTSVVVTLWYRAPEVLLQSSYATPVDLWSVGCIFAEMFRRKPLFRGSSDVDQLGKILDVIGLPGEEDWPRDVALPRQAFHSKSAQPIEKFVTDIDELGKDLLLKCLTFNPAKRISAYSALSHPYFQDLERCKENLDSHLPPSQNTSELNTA
Chain of CDK6/cycinD3 (P30281 whole entry partner, species assumed): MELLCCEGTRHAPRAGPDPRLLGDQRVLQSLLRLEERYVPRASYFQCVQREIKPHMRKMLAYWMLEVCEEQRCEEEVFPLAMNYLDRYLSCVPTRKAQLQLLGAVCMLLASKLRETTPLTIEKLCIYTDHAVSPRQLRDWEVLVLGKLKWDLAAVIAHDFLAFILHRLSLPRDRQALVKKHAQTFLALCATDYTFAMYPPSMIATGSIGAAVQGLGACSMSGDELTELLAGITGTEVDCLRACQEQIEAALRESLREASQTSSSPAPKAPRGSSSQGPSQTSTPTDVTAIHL

## CC(C)Nc1cc(-c2c[nH]c(C(=O)N[C@H](CO)c3cccc(Cl)c3)c2)c(Cl)cn1 [BVD-523]
CDK6/cycinD3
  Ki: 90 nM
[1]
  TGI: 78%
RKO Parental
  IC50: 200 nM
[2]
  IC50: 170 nM
[3]
  IC50: 180 nM
Advanced solid tumors; 600 mg BID, progressed on prior vemurafenib and dabrafenib/trametinib
  durable partial response, duration of dosing: > 300 days
Advanced solid tumors; 25 evaluable patients, all melanoma with BRAF^V600 mutations
  partial response: 3 patients
Advanced solid tumors; in vivo
  progressive disease at first evaluation: 4 patients
  stable disease: 18 patients
  stable disease for more than 3 months (additional patients): 6 patients
  stable disease for more than 6 months: 6 patients
Advanced solid tumors; other partial responders
  reduction in the sum of target lesions from baseline: 47.0% and 33.6%
Advanced solid tumors; partial responder at 450 mg BID
  reduction in the sum of target lesions from baseline: ~70%
Advanced solid tumors; patient intolerant to other BRAF/MEK inhibitors, ongoing by data cutoff
  duration of partial response: ≥ 313 days
Advanced solid tumors; patient refractory to prior BRAF/MEK inhibitors, ongoing
  duration of partial response: ≥ 294 days
CDK2/cyclinA
  Ki: 360 nM
HCT116
  Avg (4ebp1 T70): 4.03%
  Avg (Akt S473): −6.14%
  Avg (Akt): 4.41%
  Avg (Bad S136): −11.49%
  Avg (Bad S155): −30.72%
  Avg (Bak): −13.16%
  Avg (Bax): −0.8%
  Avg (Bcl 2): −3.59%
  Avg (Bcl2 S70): −8.23%
  Avg (Bcl 2 T56): −8.36%
  Avg (Bim): 12.44%
  Avg (CREB S133): −30.64%
  Avg (Caspase 3 CL D175): −10.11%
  Avg (Caspase 7 Cl D198): −21.09%
  Avg (Chk1): −11.26%
  Avg (Chk1 S345): −39.65%
  Avg (Cyclin D1): −69.62%
  Avg (ERK 1 2): −29.42%
  Avg (ERK 1 2 T202 Y204): 849.12%
  Avg (MAK1 S360): −13.45%
  Avg (Mcl1): −8.72%
  Avg (Raptor S792): −22.04%
  Avg (Raptor): −7.06%
  Avg (Rictor): −13.05%
  Avg (Stat1): −13.76%
  Avg (Stat3): −5.52%
  Avg (bad S112): −34.27%
  Avg (c Fos): −14.08%
  Avg (c Myc): −11.15%
  Avg (mTOR S2448): −12.78%
  Avg (mTOR S2481): −34.09%
  Avg (mTOR): −11.96%
  Avg (p70 S6 Kinase): −12.86%
  Avg (p90 RSK S380): −31.81%
  Avg(S6 Ribo Prot S235 236): −96.31%
  Avg(S6 Ribo Prot S240 244): −96.26%
  Avg(Tuberin TSC2 Y1571): −29.89%
  Avg(p70 S6 Kinase S371 S394): −16.9%
  Avg(p70 S6 Kinase T389 T412): −28.11%
A375
  Avg (4ebp1 T70): −31.82%
  Avg (Akt S473): 73.07%
  Avg (Akt): −14.03%
  Avg (Bad S136): 12.31%
  Avg (Bad S155): −21.9%
  Avg (Bak): −3.26%
  Avg (Bax): −6.98%
  Avg (Bcl 2): −12.55%
  Avg (Bcl2 S70): −7.91%
  Avg (Bcl 2 T56): −8.54%
  Avg (Bim): 14.57%
  Avg (CREB S133): −12.65%
  Avg (Caspase 3 CL D175): −8.06%
  Avg (Caspase 7 Cl D198): 3.18%
  Avg (Chk1): 16.94%
  Avg (Chk1 S345): −7.43%
  Avg (Cyclin D1): −81.45%
  Avg (ERK 1 2): −22.91%
  Avg (ERK 1 2 T202 Y204): 43.34%
  Avg (MAK1 S360): 3.35%
  Avg (Mcl1): 10.67%
  Avg (Raptor S792): −10.33%
  Avg (Raptor): −7.77%
  Avg (Rictor): −20.11%
  Avg (Stat1): 1.32%
  Avg (Stat3): 6.02%
  Avg (bad S112): −72.37%
  Avg (c Fos): 4.39%
  Avg (c Myc): 2.56%
  Avg (mTOR S2448): −27.87%
  Avg (mTOR S2481): −3.36%
  Avg (mTOR): 0.2%
  Avg (p70 S6 Kinase): −7.6%
  Avg (p90 RSK S380): −71%
  Avg(S6 Ribo Prot S235 236): −95.3%
  Avg(S6 Ribo Prot S240 244): −91.98%
  Avg(Tuberin TSC2 Y1571): −6.32%
  Avg(p70 S6 Kinase S371 S394): −8.58%
  Avg(p70 S6 Kinase T389 T412): −23.79%
